Five compounds from ChEMBL document CHEMBL6109062, “Novel tertiary diarylethylamines as functionally selective agonists of the kappa opioid receptor” (Bioorg Med Chem Lett, 2025) can be followed below.

Data set [1] can be described thus: in vitro. The settings on record: human, liver microsomes. (Liver microsomes are a subcellular fraction often used to study metabolism.)
The nature of data set [2]: in vivo. The settings on record: rat, po, 10 mg/kg.
Data set [3] in a line: in vivo. The settings on record: rat, po, 10 mg/kg. This is another data set of the same source.
Data set [4] in a line: in vitro. The settings on record: rat, liver microsomes.
Data set [5] can be described thus: in vitro. The settings on record: human, hepatocytes.
Data set [6] is described as follows: in vitro. The settings on record: dog, MDCK-MDR1.
Data set [7] is described as follows: in vitro. Conditions: rat, liver microsomes. This is another data set of the same source.
Data set [8] in a line: Clearance in rat. Format: ADME. Conditions: in vivo.
Data set [9] can be described thus: in vivo. Conditions: rat, po.

For orientation: fraction remaining means the share of the starting amount still present when the sample was taken. Read a high fraction remaining as less turnover. Turning to `Oc1cccc(CCN(CCc2ccccc2)CC2CCC2)c1`, the fraction remaining at 0.25 h in data set [1] was under 5%.
One may read the half-life as the time in which the quantity being followed falls by half. Lower therefore signals rapid decline. The term bioavailability denotes dose-corrected exposure relative to a reference, in per cent. As usually defined, the hepatocyte CLint is the capacity of the preparation to metabolise the compound, expressed as a volume cleared per time. High values mean faster metabolism, low ones greater metabolic stability. Usually Papp A→B stands for how fast a substance crosses the layer from the apical side. Low readings indicate poor permeation, high ones ready permeation. On to `c1ccc(CCN(CCc2ccc3nc[nH]c3c2)CC2CC2)cc1`, for which the half-life in data set [2] is 1.2 h. This compound also displayed a bioavailability in data set [3] of 2.7%. For the same compound, the share remaining at 0.25 h is 77% in [1] and under 5% in [4]. The intrinsic metabolic clearance (hepatocyte CLint) in data set [5] was 16.7 µL/min/1e6 cells. This compound displayed a Papp A→B in data set [6] of 5.5 ×10⁻⁶ cm/s. In [7], the fraction remaining at 0.5 h came out at 3%.
Consider `O=c1[nH]c2ccc(CCN(CCc3ccccc3)CC3CCC3)cc2[nH]1`, for which the amount remaining at 0.25 h in data set [1] is 66%; in data set [4], under 5%.
In the case of `CC(Cc1ccc2nc[nH]c2c1)N(CCc1ccccc1)CC1CC1` (stereo unspecified), the figures for the fraction remaining at 0.25 h in data set [1] and in data set [4] were 70% and 10%, respectively. In data set [5], this compound yielded an intrinsic metabolic clearance (hepatocyte CLint) of 22.1 µL/min/1e6 cells.
One may read the clearance as a measure of how efficiently the substance is removed, as volume per time. Read a high clearance as a high capacity for elimination. `Oc1cccc(CCN(CC2CCC2)C2CN(Cc3ccccc3)C2)c1`: the clearance in data set [8] was 45 mL/min/kg. In data set [9], this compound returned a bioavailability of under 1%. Also, in data set [1], the amount remaining at 0.25 h was under 5%.
